This note sets out measurements from PMC5910208 (ACS chemical biology, 2018).

In one series the target is T1, LaPhzM (Lysobacter antibioticus, UniProt A0A172J1V3).
T1 sequence (A0A172J1V3 1-341): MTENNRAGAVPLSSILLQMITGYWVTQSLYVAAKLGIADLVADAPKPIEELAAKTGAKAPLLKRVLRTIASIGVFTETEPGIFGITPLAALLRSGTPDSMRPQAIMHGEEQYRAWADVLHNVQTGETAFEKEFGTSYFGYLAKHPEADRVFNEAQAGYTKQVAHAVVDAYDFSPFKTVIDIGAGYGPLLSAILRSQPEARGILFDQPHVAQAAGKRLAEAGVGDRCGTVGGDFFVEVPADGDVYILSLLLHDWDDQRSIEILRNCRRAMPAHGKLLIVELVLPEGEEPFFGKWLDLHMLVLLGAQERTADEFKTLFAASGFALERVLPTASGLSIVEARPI
Put plainly: X-ray crystal structure, […] Å. The format is binding. The conditions noted are these: crystallised with SAM added; SAH found in cofactor site.

The target of another series is T2, LaPhzNO1 (Lysobacter antibioticus, UniProt A0A172J1R7).
T2 sequence (A0A172J1R7 1-541): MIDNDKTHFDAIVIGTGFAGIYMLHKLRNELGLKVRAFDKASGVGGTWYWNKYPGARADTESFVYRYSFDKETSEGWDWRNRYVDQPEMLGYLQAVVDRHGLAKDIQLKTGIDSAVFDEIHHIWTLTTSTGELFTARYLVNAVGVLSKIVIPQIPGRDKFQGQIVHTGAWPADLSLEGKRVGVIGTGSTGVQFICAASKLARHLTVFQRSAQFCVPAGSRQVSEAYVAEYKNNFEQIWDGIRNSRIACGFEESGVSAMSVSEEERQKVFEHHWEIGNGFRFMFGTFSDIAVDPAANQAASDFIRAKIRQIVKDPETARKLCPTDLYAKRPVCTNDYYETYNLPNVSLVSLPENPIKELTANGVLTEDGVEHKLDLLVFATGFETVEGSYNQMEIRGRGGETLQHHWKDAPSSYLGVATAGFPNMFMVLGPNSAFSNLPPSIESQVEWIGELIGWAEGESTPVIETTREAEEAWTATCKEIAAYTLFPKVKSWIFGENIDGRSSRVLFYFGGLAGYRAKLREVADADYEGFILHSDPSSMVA
Kind of series: HPLC / LC-MS product analysis, coupled with LaPhzS making DHP from PDC. To be noted: NADPH, FAD; phosphate 100 mM pH 7.0, RT. Type of series: biochemical.

Substrate in series [1]: COc1cccc2c1nc1cccc(O)c1[n+]2[O-]
Put plainly: initial velocity by HPLC of SAH formed, Michaelis-Menten fit. Type of series: biochemical, Lysobacter antibioticus. To be noted: co-substrate SAM, Tris 50 mM, pH 7.8, RT.

Turning to `Nc1ncnc2c1ncn2[C@@H]1O[C@H](CSCC[C@H](N)C(=O)O)[C@@H](O)[C@H]1O` [S-adenosyl-L-homocysteine], on LaPhzM, the “X-ray crystal structure, 1.42 Å” value is listed as “electron density around the cofactor binding site clearly indicates an S-adenosyl-L-homocysteine (SAH), instead of a SAM”.

As to `Oc1cccc2nc3c(O)cccc3nc12` [compound 7, 1,6-dihydroxyphenazine], the “HPLC / LC-MS product analysis, coupled with LaPhzS making DHP from PDC” value at LaPhzNO1 was “When the second enzyme LaPhzNO1 and another cofactor NADPH were added in the reaction mixture”.

B1: LaPhzM (Lysobacter antibioticus) (protein)
chain: MTENNRAGAVPLSSILLQMITGYWVTQSLYVAAKLGIADLVADAPKPIEELAAKTGAKAPLLKRVLRTIASIGVFTETEPGIFGITPLAALLRSGTPDSMRPQAIMHGEEQYRAWADVLHNVQTGETAFEKEFGTSYFGYLAKHPEADRVFNEAQAGYTKQVAHAVVDAYDFSPFKTVIDIGAGYGPLLSAILRSQPEARGILFDQPHVAQAAGKRLAEAGVGDRCGTVGGDFFVEVPADGDVYILSLLLHDWDDQRSIEILRNCRRAMPAHGKLLIVELVLPEGEEPFFGKWLDLHMLVLLGAQERTADEFKTLFAASGFALERVLPTASGLSIVEARPI
The Km is the concentration of substrate that gives half-maximal velocity. For orientation: kcat means the number of substrate molecules converted per active site and unit of time at saturation. On to B1, for which, in series [1], the Km worked out at 33.6 µM and the kcat is 0.01 s⁻¹.
